Counter-ions that a name gives are not always drawn.
Key:
[1] = target: T1, recombinant human arginase 1 (Homo sapiens, UniProt P05089); assay: Human arginase inhibition assay (colorimetric urea detection), arginase 1; format: biochemical; settings: IC50 class, hydrochloride salts, 1 h at 37° C., pH 7.4, 10 mM L-arginine, 200 μM MnCl2, read-out: Activity Class (ARG I)
T1 construct: made in house; host or cells: E. coli
T1 sequence (P05089 1-322): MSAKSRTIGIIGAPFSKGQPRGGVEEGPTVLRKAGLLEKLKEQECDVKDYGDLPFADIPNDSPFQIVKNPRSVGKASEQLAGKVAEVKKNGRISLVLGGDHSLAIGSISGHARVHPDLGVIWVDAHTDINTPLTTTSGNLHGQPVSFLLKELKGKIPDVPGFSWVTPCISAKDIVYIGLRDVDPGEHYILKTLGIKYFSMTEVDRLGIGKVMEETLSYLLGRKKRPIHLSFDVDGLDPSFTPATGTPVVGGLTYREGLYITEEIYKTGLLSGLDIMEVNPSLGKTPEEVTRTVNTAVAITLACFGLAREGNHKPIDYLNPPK
Experimental: (§1) The inhibitory activities of the compounds of the invention were assessed using recombinant human arginase 1 and 2. Both enzymes were biosynthesized using a prokaryotic expression system (E. coli) and purified by fast protein liquid chromatography (FPLC). The compounds were screened in 96-well plates at the total reaction volume of 100 μL. Briefly, recombinant enzymes were incubated with the tested compounds for 1 h at 37° C. in the reaction buffer (100 mM sodium phosphate buffer, 130 mM NaCl, 1 mg/mL BSA, pH 7.4) containing substrate (10 mM L-arginine hydrochloride) and cofactor (200 μM MnCl2). The assay is based on the detection of urea, which is generated during the conversion of L-arginine into L-ornithine catalyzed by ARG1 or ARG2. The colorimetrically detectable product was developed by adding a mixture of reagent A (4 mM oPA, 50 mM boric acid, 1 M sulfuric acid, 0.03% Brij-35) and reagent B (4 mM NED, 50 mM boric acid, 1 M sulfuric acid, 0.03% Brij-35) in equal proportions. The absorbance for each well was measured at 515 nm and the enzyme inhibition was calculated. The urea production in the absence of any tested compound was considered as maximal enzyme activity. The absorbance at the absence of arginase (background) was subtracted from all the values. Normalized values were analyzed using GraphPad Prism 7.0 software by plotting inhibition curves and determining the IC50 values.
(§2) The inhibitory activity toward humane arginase 1 of the hydrochloride salts of the exemplary compounds according to the invention is presented in Table 5.

[2] = target: T2, recombinant human arginase 2 (Homo sapiens, UniProt P78540); assay: Human arginase inhibition assay (colorimetric urea detection), arginase 2; format: biochemical; settings: IC50 class, hydrochloride salts, 1 h at 37° C., pH 7.4, 10 mM L-arginine, 200 μM MnCl2, read-out: Activity Class (ARG II)
T2 construct: made in house; host or cells: E. coli
T2 sequence (P78540 23-354): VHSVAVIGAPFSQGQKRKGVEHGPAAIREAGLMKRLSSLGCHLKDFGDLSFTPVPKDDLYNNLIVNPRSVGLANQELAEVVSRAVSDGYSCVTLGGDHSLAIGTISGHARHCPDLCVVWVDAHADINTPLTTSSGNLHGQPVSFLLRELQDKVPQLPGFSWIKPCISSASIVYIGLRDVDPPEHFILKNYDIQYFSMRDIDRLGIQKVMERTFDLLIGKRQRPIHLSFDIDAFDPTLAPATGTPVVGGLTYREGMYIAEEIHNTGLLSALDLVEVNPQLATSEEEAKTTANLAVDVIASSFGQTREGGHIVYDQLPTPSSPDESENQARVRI
Experimental: as §1, §2
The inhibitory activity toward humane arginase 2 of the hydrochloride salts of the selected exemplary compounds according to the invention is presented in Table 6.

## C[C@H](N)C(=O)N1C[C@@H](CCB(O)O)C[C@](N)(C(=O)O)C1 [Example 1, (3R,5S)-1-(L-Alanyl)-3-amino-5-(2-boronoethyl)piperidine-3-carboxylic acid dihydrochloride]
[1]
  IC50: 250 to 499 nM
[2]
  IC50: 500 to 999 nM

## C[C@H](N)C(=O)N1C[C@H](CCB(O)O)C[C@@](N)(C(=O)O)C1 [Example 2, (3S,5R)-1-(L-Alanyl)-3-amino-5-(2-boronoethyl)piperidine-3-carboxylic acid dihydrochloride]
[1]
  IC50: > 10000 nM

## NCC(=O)N1C[C@@H](CCB(O)O)C[C@](N)(C(=O)O)C1 [Example 3, (3R,5S)-3-Amino-5-(2-boronoethyl)-1-glycylpiperidine-3-carboxylic acid dihydrochloride]
[1]
  IC50: 1 to 249 nM
[2]
  IC50: 500 to 999 nM

## N[C@]1(C(=O)O)C[C@H](CCB(O)O)CN(C(=O)[C@@H]2CCCN2)C1 [Example 4, (3R,5S)-1-(L-Prolyl)-3-amino-5-(2-boronoethyl)piperidine-3-carboxylic acid dihydrochloride]
[1]
  IC50: 250 to 499 nM

## CC(C)[C@H](N)C(=O)N1C[C@@H](CCB(O)O)C[C@](N)(C(=O)O)C1 [Example 5, (3R,5S)-1-(L-Valyl)-3-amino-5-(2-boronoethyl)piperidine-3-carboxylic acid dihydrochloride]
[1]
  IC50: 250 to 499 nM

## N[C@@H](CO)C(=O)N1C[C@@H](CCB(O)O)C[C@](N)(C(=O)O)C1 [Example 6, (3R,5S)-1-(L-Seryl)-3-amino-5-(2-boronoethyl)piperidine-3-carboxylic acid dihydrochloride]
[1]
  IC50: 1 to 249 nM
[2]
  IC50: 500 to 999 nM

## CC(C)C[C@H](N)C(=O)N1C[C@@H](CCB(O)O)C[C@](N)(C(=O)O)C1 [Example 8, (3R,5S)-1-(L-Leucyl)-3-amino-5-(2-boronoethyl)piperidine-3-carboxylic acid dihydrochloride]
[1]
  IC50: 500 to 999 nM

## CC[C@H](C)[C@H](N)C(=O)N1C[C@@H](CCB(O)O)C[C@](N)(C(=O)O)C1 [Example 9, (3R,5S)-1-(L-Isoleucyl)-3-amino-5-(2-boronoethyl)piperidine-3-carboxylic acid dihydrochloride]
[1]
  IC50: 500 to 999 nM

## N[C@@H](Cc1ccc(O)cc1)C(=O)N1C[C@@H](CCB(O)O)C[C@](N)(C(=O)O)C1 [Example 10, (3R,5S)-1-(L-Tyrosyl)-3-amino-5-(2-boronoethyl)piperidine-3-carboxylic acid dihydrochloride]
[1]
  IC50: 250 to 499 nM

## C[C@@H](O)[C@H](N)C(=O)N1C[C@@H](CCB(O)O)C[C@](N)(C(=O)O)C1 [Example 12, (3R,5S)-1-(L-Threonyl)-3-amino-5-(2-boronoethyl)piperidine-3-carboxylic acid dihydrochloride]
[1]
  IC50: 250 to 499 nM

## N[C@@H](CC(=O)O)C(=O)N1C[C@@H](CCB(O)O)C[C@](N)(C(=O)O)C1 [Example 14, (3R,5S)-1-(L-Aspartyl)-3-amino-5-(2-boronoethyl)piperidine-3-carboxylic acid dihydrochloride]
[1]
  IC50: 500 to 999 nM

## N[C@@H](CCC(=O)O)C(=O)N1C[C@@H](CCB(O)O)C[C@](N)(C(=O)O)C1 [Example 15, (3R,5S)-1-(L-Glutamyl)-3-amino-5-(2-boronoethyl)piperidine-3-carboxylic acid dihydrochloride]
[1]
  IC50: 500 to 999 nM

## NC(=O)CC[C@H](N)C(=O)N1C[C@@H](CCB(O)O)C[C@](N)(C(=O)O)C1 [Example 16, (3R,5S)-1-(L-Glutaminyl)-3-amino-5-(2-boronoethyl)piperidine-3-carboxylic acid dihydrochloride]
[1]
  IC50: 250 to 499 nM

## CSCC[C@H](N)C(=O)N1C[C@@H](CCB(O)O)C[C@](N)(C(=O)O)C1 [Example 17, (3R,5S)-1-(L-Methionyl)-3-amino-5-(2-boronoethyl)piperidine-3-carboxylic acid dihydrochloride]
[1]
  IC50: 250 to 499 nM

## N[C@@H](Cc1c[nH]c2ccccc12)C(=O)N1C[C@@H](CCB(O)O)C[C@](N)(C(=O)O)C1 [Example 18, (3R,5S)-1-(L-Tryptophyl)-3-amino-5-(2-boronoethyl)piperidine-3-carboxylic acid dihydrochloride]
[1]
  IC50: 250 to 499 nM

## N[C@@H](CS)C(=O)N1C[C@@H](CCB(O)O)C[C@](N)(C(=O)O)C1 [Example 19, (3R,5S)-1-(L-Cysteinyl)-3-amino-5-(2-boronoethyl)piperidine-3-carboxylic acid dihydrochloride]
[1]
  IC50: 500 to 999 nM

## NC(=O)NCCC[C@H](N)C(=O)N1C[C@@H](CCB(O)O)C[C@](N)(C(=O)O)C1 [Example 21, (3R,5S)-3-Amino-1-((S)-2-amino-5-ureidopentanoyl)-5-(2-boronoethyl) piperidine-3-carboxylic acid dihydrochloride]
[1]
  IC50: 250 to 499 nM

## NCCC[C@H](N)C(=O)N1C[C@@H](CCB(O)O)C[C@](N)(C(=O)O)C1 [Example 22, (3R,5S)-3-Amino-5-(2-boronoethyl)-1-((S)-2,5-diaminopentanoyl)piperidine-3-carboxylic acid trihydrochloride]
[1]
  IC50: 250 to 499 nM

## C[C@@H](N)C(=O)N1C[C@@H](CCB(O)O)C[C@](N)(C(=O)O)C1 [Example 23, (3R,5S)-1-(D-Alanyl)-3-amino-5-(2-boronoethyl)piperidine-3-carboxylic acid dihydrochloride]
[1]
  IC50: 1000 to 10000 nM

## Cn1cc(C[C@@H](N)C(=O)N2C[C@@H](CCB(O)O)C[C@](N)(C(=O)O)C2)c2ccccc21 [Example 24, (3R,5S)-3-amino-5-(2-boronoethyl)-1-(1-methyl-D-tryptophyl)piperidine-3-carboxylic acid dihydrochloride]
[1]
  IC50: 500 to 999 nM

## CCC[C@H](N)C(=O)N1C[C@@H](CCB(O)O)C[C@](N)(C(=O)O)C1 [Example 25, (3R,5S)-3-Amino-1-((S)-2-aminopentanoyl)-5-(2-boronoethyl)piperidine-3-carboxylic acid dihydrochloride]
[1]
  IC50: 250 to 499 nM

## NC(=O)C[C@H](N)C(=O)N1C[C@@H](CCB(O)O)C[C@](N)(C(=O)O)C1 [Example 26, (3R,5S)-1-(L-Asparaginyl)-3-amino-5-(2-boronoethyl)piperidine-3-carboxylic acid dihydrochloride]
[1]
  IC50: 250 to 499 nM

## CNCC(=O)N1C[C@@H](CCB(O)O)C[C@](N)(C(=O)O)C1 [Example 27, (3R,5S)-3-Amino-5-(2-boronoethyl)-1-(methylglycyl)piperidine-3-carboxylic acid dihydrochloride]
[1]
  IC50: 250 to 499 nM

## COC(=O)[C@@]1(N)C[C@H](CCB(O)O)CN(C(=O)[C@H](C)N)C1 [Example 28, (2-((3S,5R)-1-(L-Alanyl)-5-amino-5-(methoxycarbonyl)piperidin-3-yl)ethyl) boronic acid dihydrochloride]
[1]
  IC50: > 10000 nM

## N=C(N)NCCC[C@H](N)C(=O)N1C[C@@H](CCB2OC(=O)CC(CC(=O)O)(C(=O)O)O2)C[C@](N)(C(=O)O)C1 (stereo partly drawn) [Example 29, (3R,5S)-1-(L-Arginyl)-3-amino-5-(2-(4-carboxy-4-(carboxymethyl)-6-oxo-1,3,2-dioxaborinan-2-yl)ethyl)piperidine-3-carboxylic acid trihydrochloride]
[1]
  IC50: 1 to 249 nM

## C[C@@H]1N(C(=O)[C@@H](N)CCCNC(=N)N)C[C@@H](CCB(O)O)C[C@]1(N)C(=O)O [Example 31, (2S,3R,5S)-1-(L-Arginyl)-3-amino-5-(2-boronoethyl)-2-methylpiperidine-3-carboxylic acid trihydrochloride]
[1]
  IC50: 250 to 499 nM

## C[C@H](N)C(=O)N1C[C@H](CCB(O)O)C[C@](N)(C(=O)O)C1 [Example 32, (3R,5R)-1-(L-Alanyl)-3-amino-5-(2-boronoethyl)piperidine-3-carboxylic acid dihydrochloride]
[1]
  IC50: > 10000 nM

## C[C@H](N)C(=O)N1C[C@@H](CCB(O)O)C[C@@](N)(C(=O)O)C1 [Example 33, (3S,5S)-1-(L-Alanyl)-3-amino-5-(2-boronoethyl)piperidine-3-carboxylic acid dihydrochloride]
[1]
  IC50: > 10000 nM
